From the NIST ThermoML archive (doi:10.1016/j.jct.2015.11.009)

Key:
[1] = xn = mol fraction of the nth substance listed; settings: 100 kPa, Liquid; for mass density: Vibrating tube method; for speed of sound: Frequency=3 MHz, Sing-around technique in a fixed-path interferometer
[2] = refractive index (Na D-line) (dimensionless); xn = mol fraction of the nth substance listed; settings: 100 kPa, Liquid, Standard Abbe refractometry

O=C1CCCN1 [2-pyrrolidinone] + CCCCn1cc[n+](C)c1.F[B-](F)(F)F
Settings | mass density, 318.15 K [kg/m3] | mass density, 323.15 K [kg/m3] | refractive index, 298.15 K | refractive index, 303.15 K | refractive index, 308.15 K | refractive index, 313.15 K | refractive index, 318.15 K | refractive index, 323.15 K | speed of sound, 323.15 K [m/s]
[1], x2 = 0 | 1090.82 | 1086.75 | – | – | – | – | – | – | 1553.5
[1], x2 = 0.102 | 1113.15 | 1109.21 | – | – | – | – | – | – | 1550
[1], x2 = 0.1951 | 1127.38 | 1123.52 | – | – | – | – | – | – | 1545.8
[1], x2 = 0.3046 | 1139.83 | 1136.08 | – | – | – | – | – | – | 1539.4
[1], x2 = 0.3886 | 1148.36 | 1144.62 | – | – | – | – | – | – | 1534.3
[1], x2 = 0.5262 | 1158.47 | 1154.82 | – | – | – | – | – | – | 1528
[1], x2 = 0.6185 | 1164.72 | 1161.11 | – | – | – | – | – | – | 1524
[1], x2 = 0.69 | 1169.02 | 1165.45 | – | – | – | – | – | – | 1519.2
[1], x2 = 0.7844 | 1174.23 | 1170.66 | – | – | – | – | – | – | 1514.2
[1], x2 = 0.8861 | 1179.12 | 1175.58 | – | – | – | – | – | – | 1510.2
[2], x2 = 0 | – | – | 1.48591 | 1.48403 | 1.48218 | 1.48033 | 1.47841 | 1.47649 | –
[2], x2 = 0.102 | – | – | 1.47414 | 1.47243 | 1.47067 | 1.46895 | 1.46715 | 1.46522 | –
[2], x2 = 0.1951 | – | – | 1.46433 | 1.46228 | 1.461 | 1.45929 | 1.45813 | 1.45533 | –
[2], x2 = 0.3046 | – | – | 1.45472 | 1.45316 | 1.45161 | 1.44998 | 1.44832 | 1.44663 | –
[2], x2 = 0.3886 | – | – | 1.4487 | 1.44722 | 1.44571 | 1.44418 | 1.44261 | 1.44099 | –
[2], x2 = 0.5262 | – | – | 1.44033 | 1.43885 | 1.43737 | 1.43589 | 1.43436 | 1.43282 | –
[2], x2 = 0.6185 | – | – | 1.43543 | 1.43414 | 1.43271 | 1.43125 | 1.42972 | 1.42817 | –
[2], x2 = 0.69 | – | – | 1.43222 | 1.43084 | 1.42943 | 1.42805 | 1.42665 | 1.42522 | –
[2], x2 = 0.7844 | – | – | 1.4283 | 1.42696 | 1.4256 | 1.4242 | 1.42286 | 1.42148 | –
[2], x2 = 0.8861 | – | – | 1.42468 | 1.42338 | 1.42205 | 1.42069 | 1.41928 | 1.41788 | –
